{"source": "the SangsterLogP compilation", "key": {"[1]": {"experiment": "method code SF-RC, from DOI: 10.1007/bf01870888, PMID: 7057454"}, "[2]": {"experiment": "not given", "remark": "listed apart in the source"}, "[3]": {"experiment": "method code SF-AS, from DOI: 10.2307/3574491, PMID: 940937", "conditions": "pH 7.4"}, "[4]": {"experiment": "method code SF-AS, from DOI: 10.1023/a:1021720128725"}, "[5]": {"experiment": "not given", "remark": "listed apart in the source"}, "[6]": {"experiment": "method code SF-RC,AS, from DOI: 10.1016/s0022-3565(25)22658-1, PMID: 3367302", "conditions": "pH 7.4"}, "[7]": {"experiment": "not given", "remark": "listed apart in the source"}, "[8]": {"experiment": "not given", "remark": "listed apart in the source"}, "[9]": {"experiment": "method code SF-GLC, from DOI: 10.1080/00032718608066246", "conditions": "pH 7.0"}, "[10]": {"experiment": "not given", "remark": "listed apart in the source"}, "[11]": {"experiment": "not given", "remark": "listed apart in the source"}, "[12]": {"experiment": "not given", "remark": "listed apart in the source"}, "[13]": {"experiment": "not given", "remark": "listed apart in the source"}, "[14]": {"experiment": "not given", "remark": "listed apart in the source"}, "[15]": {"conditions": "pH 2.0"}, "[16]": {"experiment": "method code SF-HPLC, from DOI: 10.1021/js980008v, PMID: 9758683"}, "[17]": {"experiment": "not given", "remark": "listed apart in the source"}}, "data": [{"smiles": "NC(N)=O", "values": [{"measurement": "logP", "setting": "[1]", "value": -1.54}]}, {"smiles": "Nc1c(Cl)c(Cl)nc(C(=O)O)c1Cl", "values": [{"measurement": "logP", "value": 1}]}, {"smiles": "CCN(CC)CCO", "values": [{"measurement": "logP", "setting": "[2]", "value": 0.31}]}, {"smiles": "CN(C)C(=O)Nc1ccc(Oc2ccc(Cl)cc2)cc1", "values": [{"measurement": "logP", "value": 3.7}]}, {"smiles": "Cc1cnc([N+](=O)[O-])n1CCO", "values": [{"measurement": "logD", "setting": "[3]", "value": 0.18}]}, {"smiles": "COc1ccc(-c2cn3c(=O)c4ncn(COCCO)c4nc3[nH]2)cc1", "values": [{"measurement": "logP", "setting": "[4]", "value": 0.39}]}, {"smiles": "CCCC(C)C1(CC)C(=O)NC(=S)NC1=O", "note": "(centres undefined)", "values": [{"measurement": "logP", "setting": "[5]", "value": 2.54}]}, {"smiles": "Nc1nc2c(nc(Br)n2COCCO)c(=O)[nH]1", "values": [{"measurement": "logP", "setting": "[4]", "value": -0.26}]}, {"smiles": "[N-]=[N+]=N[C@H]1C[C@H](n2ccc(=O)[nH]c2=O)O[C@@H]1CO", "values": [{"measurement": "logD", "setting": "[6]", "value": -0.37}]}, {"smiles": "CCOC(=O)Cn1c(CC)cnc1[N+](=O)[O-]", "values": [{"measurement": "logD", "setting": "[3]", "value": 0}]}, {"smiles": "Cc1ccc(C(=O)O)c(C2=NC(C)(C(C)C)C(=O)N2)c1", "note": "(centres undefined)", "values": [{"measurement": "logP", "setting": "[7]", "value": 1.54}]}, {"smiles": "Cc1ccc(C(=N)c2ccc(C)cc2)cc1", "values": [{"measurement": "logP", "setting": "[8]", "value": 3.71}]}, {"smiles": "c1ccc2nc3ccccc3cc2c1", "values": [{"measurement": "logD", "setting": "[9]", "value": 3.32}]}, {"smiles": "CCCCCC", "values": [{"measurement": "logP", "setting": "[10]", "value": 3.9}]}, {"smiles": "CC(=O)OCCOC(C)=O", "values": [{"measurement": "logP", "setting": "[2]", "value": 0.1}]}, {"smiles": "CC(C)(C(=O)O)C(=O)O", "values": [{"measurement": "logP", "setting": "[2]", "value": 0.26}]}, {"smiles": "Cn1c(C=O)cnc1[N+](=O)[O-]", "values": [{"measurement": "logD", "setting": "[3]", "value": -0.1}]}, {"smiles": "Nc1cccc(N)c1", "values": [{"measurement": "logP", "setting": "[2]", "value": 0}]}, {"smiles": "COc1ccc(/C=C/[N+](=O)[O-])cc1", "values": [{"measurement": "logP", "setting": "[11]", "value": 2.2}]}, {"smiles": "Nc1c(Cl)cc(Cl)cc1Cl", "values": [{"measurement": "logP", "setting": "[12]", "value": 3.42}]}, {"smiles": "Cc1c(F)c(F)c(COC(=O)[C@H]2[C@@H](/C=C(\\Cl)C(F)(F)F)C2(C)C)c(F)c1F", "values": [{"measurement": "logP", "setting": "[7]", "value": 6.5}]}, {"smiles": "COCC(O)Cn1c([N+](=O)[O-])cnc1C", "note": "(centres undefined)", "values": [{"measurement": "logD", "setting": "[3]", "value": 0.04}]}, {"smiles": "Cc1ccccc1C(=N)c1ccccc1", "values": [{"measurement": "logP", "setting": "[8]", "value": 3.21}]}, {"smiles": "CCOP(=S)(OCC)SCSP(=S)(OCC)OCC", "values": [{"measurement": "logP", "setting": "[7]", "value": 4}]}, {"smiles": "CC(C)(C)c1cccc(C(C)(C)C)c1O", "values": [{"measurement": "logP", "setting": "[13]", "value": 4.92}]}, {"smiles": "Cc1cccc(C)c1C(=N)c1ccccc1", "values": [{"measurement": "logP", "setting": "[8]", "value": 3.53}]}, {"smiles": "Cc1c(C)c2c(c(C)c1O)CCC(C)(COc1ccc(CC3SC(=O)NC3=O)cc1)O2", "note": "(centres undefined)", "values": [{"measurement": "logP", "setting": "[14]", "value": 2.7}]}, {"smiles": "CO[C@H]1CCC[C@H]2C1=C(C(=O)OC(C)OC(=O)OC1CCCCC1)N1C(=O)[C@H]([C@@H](C)O)[C@@H]21", "note": "(some centres undefined)", "values": [{"measurement": "logP", "setting": "[14]", "value": 3}]}, {"smiles": "CCNC(=O)[C@@H](C)OC(=O)Nc1ccccc1", "values": [{"measurement": "logP", "value": 1}]}, {"smiles": "C/C=C/C=C/C(=O)O", "values": [{"measurement": "logD", "setting": "[15]", "value": 1.64}]}, {"smiles": "CCC(=O)OCN1C(=O)NC(c2ccccc2)(c2ccccc2)C1=O", "values": [{"measurement": "logP", "setting": "[16]", "value": 3.34}]}, {"smiles": "O=C(O)c1ccc(O)cc1O", "values": [{"measurement": "logP", "setting": "[17]", "value": 1.41}]}, {"smiles": "O=[N+]([O-])c1nccn1CCO", "values": [{"measurement": "logD", "setting": "[3]", "value": -0.51}]}, {"smiles": "COP(=S)(CN1C(=O)c2ccccc2C1=O)OC", "values": [{"measurement": "logP", "setting": "[2]", "value": 2.83}]}]}
